Results published in patent publication US9387204B2, “Fused bicyclic imidazoles” (BAYER INTELLECTUAL PROPERTY GmbH, priority 2007, dated 2016).
Like-named read-outs stand apart in the source and are kept apart here.

Key:
phospho-Akt (Ser473) = assay: Cellular PI3K/Akt pathway assay (phospho-Akt ELISA); assay type: cell-based; settings: MCF7 cells, β-Heregulin stimulated, 48 h, phospho-Akt1 (Ser473) ELISA
Method: In order to study the cellular activity of the compounds according to the present invention, an Enzyme Linked Immunosorbent Assay (ELISA)-based assay has been used specific phospho-AKT. The assay is based on a Sandwich ELISA kit (PathScan™ Phospho-Akt1 (Ser473); Cell Signaling, USA; #7160).
The ELISA Kit detects endogenous levels of phosphorylated Akt protein. A phospho-Akt (Ser473) antibody (Cell Signaling, USA; #9271) has been coated onto the microwells. After incubation with cell lysates, the coated antibody captures the phosphorylated Akt protein. Following extensive washing, Akt1 monoclonal antibody (Cell Signaling, USA; #2967) is added to detect the captured phospho-Akt1 protein. HRP-linked anti-mouse antibody (HRP: horseradish peroxidase; Cell Signaling, USA; #7076) is then used to recognize the bound detection antibody. HRP substrate (=3,3′,5,5′-tetramethylbenzidine (TMB); Cell Signaling, USA; #7160) is added to develop colour. The magnitude of optical density for this developed color is proportional to the quantity of phosphorylated Akt protein. MCF7 cells (ATCC HTB-22) are seeded into 96 well fate bottom plates at a density of 10000 cells/well. 24 hours after seeding, the cells are serum starved using low-serum medium (IMEM media including 0.1% charcoal treated FCS (FCS: fetal calf serum)). […] To stimulate Akt phosphorylation, β-Heregulin (20 ng/ml β-HRG) is added in parallel to the compounds. Wells containing unstimulated control cells (no β-Heregulin stimulation) are incubated with or without the diluted compound. Wells containing untreated control cells (no compound) are filled with medium containing 0.5% v:v DMSO and are or are not stimulated with β-Heregulin.
Cells are harvested and lysed with brief sonification in 1× cell lysis buffer (20 mM Tris (pH7.5), 150 mM NaCl, 1 mM ethylene diaminetetraacetate (EDTA), 1 mM ethylene glycolbis(2-aminoethyl)-N,N,N′,N′-tetraacetic acid (EGTA), 1 vol % Triton X-100, 2.5 mM sodium pyrophosphate, 1 mM β-glycerolphosphate, 1 mM Na3VO4, 1 μg/ml leupeptin). The lysate is centrifuged for 10 min. at 4° C. and the supernatant is transferred to a new tube. 100 μl of sample diluent (0.1 vol % Tween-20, 0.1 vol % sodium azide in phosphate buffered saline (PBS)) are added to a microcentrifuge tube and 100 μl of cell lysate are transferred into the tube and vortexed. 100 μl of each diluted cell lysate are added to the appropriate ELISA well, and incubated overnight at 4° C. The plates are washed 4 times with 1× wash buffer (1 vol % tween-20, 0.33 vol % thymol, in PBS). Next 100 μl of detection antibody (Akt1 (2H10) monoclonal detection antibody; Cell Signaling, USA; #2967) are added to each well and incubation continued for 1 h at 37° C. The washing procedure is repeated between each step. 100 μl of secondary antibody (anti-mouse IgG HRP-linked antibody; Cell Signaling, USA; #7076) are added to each well and incubated for 30 min. at 37° C. Than, 100 μl of TMB substrate (0.05% 3,3′,5,5′ tetramethylbenzidine, 0.1% hydrogen peroxide, complex polypeptides in a buffered solution; Cell Signaling, USA; #7160) are added to each well and incubated for 30 min. at 25° C. Finally 100 μl of STOP solution (0.05 vol % α and β unsaturated carbonyl compound) are added to each well and the plate are shaked gently. The absorbance is measured at ? 450 nm (Wallac Victor2; Perkin Elmer, USA) within 30 min. after adding the STOP solution. The analysis of the data is performed using a statistical program (Excel; Microsoft, USA). Preferred compounds show an inhibitory activity towards Akt phosphorylation below 10 μM.

phospho-GSK3 (Ser9) = assay: Cellular pGSK3 assay (phospho-GSK3 ELISA); assay type: cell-based; settings: Homo sapiens, MCF7 cells, 48 h, read-out: Cellular pGSK3 pathway assay
Method: In order to study the cellular activity of the compounds according to the present invention, an ELISA-based assay has been established for the phosphorylated protein glycogen synthetase kinase 3 (GSK3). The assay is based on a solid phase sandwich ELISA that detects endogenous levels of phosphorylated GSK3 using a phospho-GSK3 (Ser9) specific antibody (BioSource International, Inc.; Catalog #KHO0461). After incubation with cell lysates, the coated antibody captures the phosphorylated GSK3 protein. Following extensive washing, GSK3 polyclonal antibody is added to detect the captured phospho-GSK3 protein. Secondary antibody (anti-rabbit IgG-HRP) is then used to recognize the bound detection antibody. After the second incubation and washing to remove all the excess anti-rabbit IgG-HRP, a substrate solution is added, which is acted upon by the bound enzyme to produce color. The intensity of this colored product is directly proportional to the concentration of GSK-3β [pS9] present in the original specimen.
MCF7 cells (ATCC HTB-22) were seeded into 96 well fate bottom plates at a density of 10000 cells/well. […] Cells were harvested and lysed in cell extraction buffer (10 mM Tris, pH 7.4, 100 mM NaCl, 1 mM EDTA, 1 mM EGTA, 1 mM NaF, 20 mM Na4P2O7, 2 mM Na3VO4, 1% Triton X-100, 10 vol % glycerol, 0.1 vol % SDS, 0.5 vol % deoxycholate, 1 mM phenylmethylsulfonylfluorid (PMSF)). The lysate were centrifuged for 10 min. at 4° C. and the supernatant were transferred to a new tube. 50 μl of sample diluent (standard diluent buffer, Biosource) were added and 100 μl of cell lysate transferred into the tube and vortexed. 100 μl of each diluted cell lysate were added to the appropriate ELISA well plate and incubated for 3 h at room temperature. The plates were washed 4 times with 1× wash buffer (Biosource). 50 μl of detection antibody (GSK3 (Ser9) detection antibody; BioSource) were added to each well and incubated for 30 min. at room temperature. The washing procedure was repeated between each step. 100 μl of HRP-linked secondary antibody (anti-mouse IgG HRP-linked antibody) were added to each well and incubated for 30 min. at room temperature. 100 μl of TMB substrate (0.05 vol % 3,3′,5,5′ tetramethylbenzidine, 0.1 vol % hydrogen peroxide, complex polypeptides in a buffered solution; Biosource) were added to each well and incubated for 30 min. at room temperature. Finally 100 μl of Stop solution (0.05 vol % α and β unsaturated carbonyl compound) were added to each well and the plate were shaked gently for a few seconds. The absorbance was measured at ? 450 nm (Wallac Victor2; Perkin Elmer, USA) within 30 min. after adding the stop solution.
The analysis of the data was performed using a statistical program (Excel; Microsoft, USA) and the IC50 of pGSK3 inhibition was determined.

OvCAR3 cells = assay: Cellular proliferation/cytotoxicity assay (Alamar Blue), OvCAR3 cells; assay type: cell-based; settings: Homo sapiens, OVCAR-3, 72 h, Alamar Blue (Resazurin), read-out: Anti-proliferative/Cytotoxic activity (OvCAR3 cells)
Text: Viabilities are expressed as % values.

A549 cells [1] = assay: Cellular proliferation/cytotoxicity assay (Alamar Blue), A549 cells; settings: Homo sapiens, A549, 72 h, read-out: Anti-proliferative/Cytotoxic activity (A549 cells)
A549 cells [2] = test system: A549 cells

| IC50 (phospho-Akt (Ser473); Homo sapiens) [µM] | IC50 (phospho-GSK3 (Ser9)) [µM] | IC50 (phospho-Akt (Ser473)) [µM] | IC50 (A549 cells [2]) [µM] | SMILES | IC50 (OvCAR3 cells) [µM] | IC50 (A549 cells [1]) [µM] |
| --- | --- | --- | --- | --- | --- | --- |
| < 1 | 1 to 10 |  |  | Fc1cc(F)c2nc(-c3ccc(CN4CCC(c5nnc(-c6ccccn6)[nH]5)CC4)cc3)c(-c3ccccc3)n2c1 [Example 44, 6,8-Difluoro-3-phenyl-2-{4-[4-(5-pyridin-2-yl-4H-[1,2,4]triazol-3-yl)-piperidin-1-ylmethyl]-phenyl}-imidazo[1,2-a]pyridine] | < 10 | > 10 |
|  | > 10 |  |  | c1ccc(-c2nc(C3CCN(Cc4ccc(-c5nc6sccn6c5-c5nccs5)cc4)CC3)n[nH]2)nc1 [Example 42, 6-(4-{[4-(5-pyridin-2-yl-1,2,4-triazol-3-yl)piperidin-1-yl]methyl}phenyl)-5-(1,3-thiazol-2-yl)imidazo[2,1-b][1,3]thiazole] | < 10 | < 10 |
|  |  | < 1 | < 10 | Cc1ccc(-c2nnc(C3CCN(Cc4ccc(-c5nc6c(C#N)cccn6c5-c5ccccc5)cc4)CC3)[nH]2)nc1 [Example 71, ′2-[4-({4-[5-(5-methylpyridin-2-yl)-4H-1,2,4-triazol-3-yl]piperidin-1-yl}methyl)phenyl]-3-phenylimidazo[1,2-a]pyridine-8-carbonitrile] |  |  |
|  |  | < 1 | < 10 | COc1ccn2c(-c3ccccc3)c(-c3ccc(CN4CCC(c5nnc(-c6cccc(C)n6)[nH]5)CC4)cc3)nc2c1 [Example 68, ′7-methoxy-2-[4-({4-[5-(6-methylpyridin-2-yl)-4H-1,2,4-triazol-3-yl]piperidin-1-yl}methyl)phenyl]-3-phenylimidazo[1,2-a]pyridine] |  |  |
| < 1 | 1 to 10 |  |  | Cc1cn2c(-c3ccccc3)c(-c3ccc(CN4CCC(c5nnc(-c6ccccn6)[nH]5)CC4)cc3)nc2s1 [Example 46, 2-methyl-5-phenyl-6-[4-({4-[5-(pyridin-2-yl)-4H-1,2,4-triazol-3-yl]piperidin-1-yl}methyl)phenyl]imidazo[2,1-b][1,3]thiazole] |  | < 10 |
|  | 1 to 10 |  |  | Fc1ccccc1-c1c(-c2ccc(CN3CCC(c4n[nH]c(-c5ccccn5)n4)CC3)cc2)nc2ncccn12 [Example 41, 3-(2-fluorophenyl)-2-(4-{[4-(5-pyridin-2-yl-1,2,4-triazol-3-yl)piperidin-1-yl]methyl}phenyl)imidazo[1,2-a]pyrimidine] | < 10 | > 10 |
|  |  | < 1 | > 10 | N#Cc1cccn2c(-c3ccccc3)c(-c3ccc(CN4CCC(c5nnc(-c6cccs6)[nH]5)CC4)cc3)nc12 [Example 98, ′3-phenyl-2-[4-({4-[5-(2-thienyl)-4H-1,2,4-triazol-3-yl]piperidin-1-yl}methyl)phenyl]imidazo[1,2-a]pyridine-8-carbonitrile] |  |  |
|  |  | < 1 | < 10 | N#Cc1cccn2c(-c3ccccc3)c(-c3ccc(CN4CCC(c5nnc(-c6ccc[nH]6)[nH]5)CC4)cc3)nc12 [Example 105, ′3-phenyl-2-[4-({4-[5-(1H-pyrrol-2-yl)-4H-1,2,4-triazol-3-yl]piperidin-1-yl}methyl)phenyl]imidazo[1,2-a]pyridine-8-carbonitrile] |  |  |
|  |  |  |  | N=C(N)c1cccn2c(-c3ccccc3)c(-c3ccc(CN4CCC(c5n[nH]c(-c6ccccn6)n5)CC4)cc3)nc12 [Example 33, 3-phenyl-2-(4-{[4-(5-pyridin-2-yl-1,2,4-triazol-3-yl)piperidin-1-yl]methyl}phenyl)imidazo[1,2-a]pyridine-8-carboximidamide] | < 10 | < 10 |
|  |  | < 1 | < 10 | N#Cc1cccn2c(-c3ccccc3)c(-c3ccc(CN4CCC(c5nnc(-c6ccncc6)[nH]5)CC4)cc3)nc12 [Example 59, ′3-phenyl-2-(4-{[4-(5-pyridin-4-yl-4H-1,2,4-triazol-3-yl)piperidin-1-yl]methyl}phenyl)imidazo[1,2-a]pyridine-8-carbonitrile] |  |  |
